The source made the active and inactive calls. No cut-off for these calls is given here.
Tests used:
[1] = target: T1, Dual specificity tyrosine-phosphorylation-regulated kinase 1B (Homo sapiens, UniProt Q9Y463); assay: Inhibition of GST-tagged DYRK1B (unknown origin) incubated for 30 mins using DYRKtide by ADP-Glo assay
Target sequence in this assay (Q9Y463 whole entry): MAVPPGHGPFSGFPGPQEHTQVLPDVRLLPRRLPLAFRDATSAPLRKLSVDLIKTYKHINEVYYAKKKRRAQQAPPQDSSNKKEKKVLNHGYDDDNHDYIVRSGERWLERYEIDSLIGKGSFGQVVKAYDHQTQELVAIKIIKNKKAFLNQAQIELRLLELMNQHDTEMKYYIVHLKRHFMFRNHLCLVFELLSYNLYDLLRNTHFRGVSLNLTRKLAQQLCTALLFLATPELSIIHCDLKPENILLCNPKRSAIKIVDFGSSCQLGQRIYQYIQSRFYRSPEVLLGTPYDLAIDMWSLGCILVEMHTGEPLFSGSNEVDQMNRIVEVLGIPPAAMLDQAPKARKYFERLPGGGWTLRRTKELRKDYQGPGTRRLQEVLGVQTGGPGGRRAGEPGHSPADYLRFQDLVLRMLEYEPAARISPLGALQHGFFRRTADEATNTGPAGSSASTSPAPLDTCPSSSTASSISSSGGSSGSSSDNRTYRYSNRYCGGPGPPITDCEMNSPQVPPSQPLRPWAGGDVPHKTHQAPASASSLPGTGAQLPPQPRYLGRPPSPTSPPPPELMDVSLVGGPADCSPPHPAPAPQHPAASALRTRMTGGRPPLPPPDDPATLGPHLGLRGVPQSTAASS

[2] = target: T1, Dual specificity tyrosine-phosphorylation-regulated kinase 1B; assay: Inhibition of GST-tagged DYRK1B (unknown origin) assessed as reduction p27 Ser10 phosphorylation at 0.1 to 10 uM; details: dose 0.1-10 µM
Target sequence in this assay (Q9Y463 whole entry, looked up): as the sequence (Q9Y463 whole entry) above

HT-29 [3] = assay: Cytotoxicity against human HT-29 multicellular tumor spheroid cells at 5 uM incubated for 48 hrs under hypoxic conditions by Hoechst and SYTOX staining based assay; type: functional, cell-based
HT-29 [4] = assay: Cytotoxicity against human HT-29 multicellular tumor spheroid cells at 0.15 to 20 uM incubated for 48 hrs by Hoechst and SYTOX staining based assay; type: functional, cell-based; details: dose 0.15-20 µM
HT-29 [5] = assay: Cytotoxicity against human HT-29 multicellular tumor spheroid cells at 5 uM incubated for 48 hrs by Hoechst and SYTOX staining based assay; type: functional, cell-based
[6] = target: T1, Dual specificity tyrosine-phosphorylation-regulated kinase 1B; assay: Inhibition of DYRK1B un human HT-29 cells assessed as reduction p27 Ser10 phosphorylation at 2.5 to 10 uM; type: cell-based; details: dose 2.5-10 µM
Target sequence in this assay (Q9Y463 whole entry, looked up): as the sequence (Q9Y463 whole entry) above

Row | SMILES | IC50 [1] | inhibition [2] | Activity (HT-29 [3]) | Activity (HT-29 [4]) | Activity (HT-29 [5]) | inhibition [6]
1 | COc1ccccc1-n1cc(-c2ccnc(NCc3c(C)n[nH]c3C)n2)cn1 | 3000 nM | – | – | – | – | –
2 | Fc1ccccc1-n1cc(-c2ccnc(NCc3ccncc3)n2)cn1 | 4000 nM | Active | Active | Active | Active | Active
3 | Fc1ccccc1-n1cc(-c2ccnc(NC3CCOCC3)n2)cn1 | 2000 nM | – | – | – | – | –
4 | CCNc1nccc(-c2cnn(-c3ccccc3F)c2)n1 | 3000 nM | – | – | – | – | –
